The source made the active and inactive calls. The calls are words filed in the database; no cut-off is given here.
Key:
[1] = test system: Mus musculus; assay: Toxicity in Mus musculus Swiss albino (mouse) assessed as mortality at 25 mg/kg, po; format: organism-based; parameters: dose 25 mg/kg, route oral; settings: in vivo
[2] = test system: Mus musculus; assay: Anticonvulsant activity against pentylenetetrazole-induced seizures in Mus musculus Swiss albino (mouse) assessed as onset of seizures at 25 mg/kg, po administered 1 hr prior challenge; format: functional
[3] = test system: Mus musculus; assay: Anticonvulsant activity against maximal electroshock-induced seizures in Mus musculus Swiss albino (mouse) assessed as time duration of tonic limb extensor at 25 mg/kg; format: functional
[4] = test system: Mus musculus; assay: Antidepressant activity in Mus musculus Swiss albino (mouse) assessed as duration of immobility at 25 mg/kg, ip measured after 1 hr by forced swim test test relative to pretreatment; format: functional; settings: route intraperitoneal
[5] = test system: Mus musculus; assay: Anticonvulsant activity against maximal electroshock-induced seizures in Mus musculus Swiss albino (mouse) assessed as animals protected at 25 mg/kg; format: functional
[6] = test system: Mus musculus; assay: Anxiolytic activity in Mus musculus Swiss albino (mouse) assessed as time spent in light chamber at 25 mg/kg by light-dark box test; format: functional
[7] = species on record: Mus musculus; assay: Anxiolytic activity in Mus musculus Swiss albino (mouse) assessed as time spent in open arm by elevated plus maze test; format: functional
[8] = test system: Mus musculus; assay: Antidepressant activity in Mus musculus Swiss albino (mouse) assessed as as increase in mobile phase at 25 mg/kg, ip measured after 1 hr by tail suspension test; format: functional; settings: route intraperitoneal
[9] = test system: Mus musculus; assay: Antidepressant activity in ip dosed Mus musculus Swiss albino (mouse) assessed as duration of immobility measured after 1 hr by forced swim test relative to pretreatment; format: functional
[10] = test system: Mus musculus; assay: Anticonvulsant activity against pentylenetetrazole-induced seizures in Mus musculus Swiss albino (mouse) assessed as onset of seizures at 4 mg/kg, po administered 1 hr prior challenge; format: functional, organism-based; parameters: dose 4 mg/kg
[11] = test system: Mus musculus; assay: Anxiolytic activity in Mus musculus Swiss albino (mouse) assessed as time spent in light chamber at 2 mg/kg by light-dark box test; format: functional
[12] = test system: Mus musculus; assay: Toxicity in Mus musculus Swiss albino (mouse) assessed as mortality at 4 mg/kg, po; format: organism-based; parameters: dose 4 mg/kg, route oral; settings: in vivo
[13] = test system: Mus musculus; assay: Anticonvulsant activity against maximal electroshock-induced seizures in Mus musculus Swiss albino (mouse) assessed as time duration of tonic limb extensor at 40 mg/kg; format: functional
[14] = test system: Mus musculus; assay: Anticonvulsant activity against maximal electroshock-induced seizures in Mus musculus Swiss albino (mouse) assessed as animals protected at 40 mg/kg; format: functional

Compound | Activity [1] | Time [2] | Time [3] | Activity [4] | Activity [5] | Time [6] | Time [7] | Activity [8] | Activity [9] | Activity [10] | Time [11] | Activity [12] | Time [13] | Activity [14]
NS(=O)(=O)c1ccc(Sc2nnc(NC(=O)c3ccccc3)s2)cc1 | Toxic | 86.98 s | 6.7 s | -33.22% | 0% | 163.66 s | 38.5 s | 49.86% |  |  |  |  |  | 
O=C(Nc1nnc(Sc2ccc(F)cc2)s1)c1ccccc1 | Non-toxic | 91.416 s | 6.37 s | -20.3% | 0% | 153.66 s | 32.694 s | 28.45% |  |  |  |  |  | 
CN(C)CCCN1c2ccccc2CCc2ccccc21.Cl [IMIPRAMINE HYDROCHLORIDE] |  |  |  |  |  |  |  |  | -47.48% |  |  |  |  | 
O=C(Nc1nnc(Sc2ccc(S(=O)(=O)Cl)cc2)s1)c1ccccc1 | Non-toxic | 102.26 s | 6.25 s | -33.58% | 0% | 166.66 s | 34.11 s | 49.29% |  |  |  |  |  | 
CN1C(=O)CN=C(c2ccccc2)c2cc(Cl)ccc21 [DIAZEPAM] |  |  |  |  |  |  | 58.76 s |  |  | Active | 193 s | Non-toxic |  | 
O=C1NC(=O)C(c2ccccc2)(c2ccccc2)N1 [PHENYTOIN] |  |  |  |  |  |  |  |  |  |  |  |  | 0 s | 100%
O=C(Nc1nnc(Sc2ccc(C(Cl)(Cl)Cl)cc2)s1)c1ccccc1 | Non-toxic | 71.21 s | 7.08 s | -22.15% | 0% | 152.33 s | 20.38 s | 30.7% |  |  |  |  |  | 
O=C(Nc1nnc(Sc2ccc(Br)cc2)s1)c1ccccc1 | Toxic | 78.27 s | 7.96 s | 1.1% | 0% | 153.16 s | 20.88 s | 12% |  |  |  |  |  | 
O=C(Nc1nnc(Sc2ccc(C(F)(F)F)cc2)s1)c1ccccc1 | Toxic | 81.74 s | 6.18 s | -29.78% | 0% | 163 s | 29.86 s | 46.93% |  |  |  |  |  | 
Cc1ccc(Sc2nnc(NC(=O)c3ccccc3)s2)cc1 | Non-toxic | 78.35 s | 7.35 s | 1.35% | 0% | 143 s | 31.13 s | 17.26% |  |  |  |  |  | 
